PubChem BioAssay (NCI)
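In this assay, cells in 96-well plates receive the compound at five concentrations for 48 hours. Endpoints are linearly interpolated between the surrounding concentrations. GI50 is the concentration that inhibits growth by half. TGI is the concentration that stops growth completely.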

Assays:
Test in all cases: inhibition of tumour cell growth, NCI panel, 48 h
ACHN renal = test system: ACHN renal
HCC-2998 colon = test system: HCC-2998 colon
HCT-15 colon = test system: HCT-15 colon
HOP-62 NSCLC = test system: HOP-62 NSCLC
IGROV1 ovarian = test system: IGROV1 ovarian
LOX IMVI melanoma = test system: LOX IMVI melanoma
NCI-H226 lung = test system: NCI-H226 lung
RPMI-8226 leukemia = test system: RPMI-8226 leukemia
SK-OV-3 ovarian = test system: SK-OV-3 ovarian
MOLT-4 leukemia = test system: MOLT-4 leukemia

SMILES | GI50 (ACHN renal) | TGI (ACHN renal) | GI50 (HCC-2998 colon) | TGI (HCC-2998 colon) | GI50 (HCT-15 colon) | TGI (HCT-15 colon) | GI50 (HOP-62 NSCLC) | TGI (HOP-62 NSCLC) | GI50 (IGROV1 ovarian) | TGI (IGROV1 ovarian) | GI50 (LOX IMVI melanoma) | TGI (LOX IMVI melanoma) | GI50 (NCI-H226 lung) | TGI (NCI-H226 lung) | GI50 (RPMI-8226 leukemia) | TGI (RPMI-8226 leukemia) | GI50 (SK-OV-3 ovarian) | TGI (SK-OV-3 ovarian) | TGI (MOLT-4 leukemia) | GI50 (MOLT-4 leukemia)
O=c1[nH]cnc2c(C3OC(CO)C(O)C3O)scc12 (centres undefined) | 49.1 µM | > 100 µM | 32.3 µM | > 100 µM | 60 µM | > 100 µM | 46.9 µM | > 100 µM | 73.5 µM | > 100 µM | 43.9 µM | > 100 µM | > 100 µM | > 100 µM | 26.9 µM | > 100 µM | > 100 µM | > 100 µM | – | –
O=C(Cc1ccccc1)N/N=C(\C1=Nc2ccc([N+](=O)[O-])cc2NC1O)C(O)c1ccc([N+](=O)[O-])cc1 (centres undefined) | – | > 100 µM | – | > 100 µM | – | > 100 µM | – | > 100 µM | – | > 100 µM | – | > 100 µM | – | > 100 µM | – | > 100 µM | – | > 100 µM | – | –
CCOc1ccc(NC(=O)CC2SC(N)=NC2=O)cc1 (centres undefined) | – | > 100 µM | – | > 100 µM | – | – | – | > 100 µM | – | > 100 µM | – | > 100 µM | – | > 100 µM | – | > 100 µM | – | – | > 100 µM | –
COc1cc(Oc2c(O)c(C)c(OC)c(C(C)=O)c2O)c(C(C)=O)c(O)c1C | – | > 100 µM | – | > 100 µM | – | > 100 µM | – | 83.1 µM | – | > 100 µM | – | > 100 µM | – | > 100 µM | – | – | – | > 100 µM | – | –
COc1ccc2cc3n(c2c1)CCc1cc(OC)c(OC)cc1-3 | – | > 100 µM | – | > 100 µM | – | – | – | > 100 µM | – | > 100 µM | – | > 100 µM | – | > 100 µM | – | – | – | > 100 µM | > 100 µM | –
O=C(Nc1ccc2c(c1)oc(=O)c1ccccc12)C(Cl)Cl | – | > 100 µM | – | > 100 µM | – | > 100 µM | – | > 100 µM | – | > 100 µM | – | > 100 µM | – | > 100 µM | – | 32.5 µM | – | – | > 100 µM | –
COc1ccc(-c2ccc(/C=N/n3c(COc4ccc(Cl)cc4)n[nH]c3=S)o2)c([N+](=O)[O-])c1 | 17.2 µM | 39.6 µM | 16.5 µM | 31.2 µM | 16 µM | 45.8 µM | 22.6 µM | 40.4 µM | – | – | – | – | 13.5 µM | 57.8 µM | – | – | 19.9 µM | 53.3 µM | 75.4 µM | 16.5 µM
C/C(=N\NC(N)=O)C(CN(C)C)C(c1ccccc1)c1c(O)c2ccccc2oc1=O (centres undefined) | – | > 100 µM | – | > 100 µM | – | > 100 µM | – | > 100 µM | – | > 100 µM | – | > 100 µM | – | > 100 µM | – | > 100 µM | – | – | > 100 µM | –
FC(F)(F)C12C34C=CC5(CCC6(C=CC1(CC3)O6)C52C(F)(F)F)O4 (centres undefined) | – | > 100 µM | – | > 100 µM | – | – | – | > 100 µM | – | > 100 µM | – | > 100 µM | – | > 100 µM | – | – | – | > 100 µM | > 100 µM | –
C/C1=C\CC[C@@](C)(O)[C@@H]2CC3[C@@H](OC(=O)C34CC4)[C@@H](O2)[C@H](C)CCC1 (some centres undefined) | 16.9 µM | 35.1 µM | 14.7 µM | 27.8 µM | 23.7 µM | 58 µM | – | – | 6.48 µM | 24.1 µM | 6.09 µM | 25.8 µM | – | – | 30.1 µM | > 100 µM | 55 µM | > 100 µM | > 100 µM | 39.2 µM
CS(=O)(=O)Nc1cc(-c2ccc3ncnc(Nc4ccc5c(cnn5Cc5ccc(F)cc5)c4)c3c2)cnc1Cl | 2.99 µM | > 100 µM | 1.41 µM | 3.17 µM | 3.21 µM | 21.3 µM | 1.53 µM | 41.4 µM | 0.314 µM | 1.71 µM | 1.18 µM | 3.27 µM | 2.18 µM | 11 µM | – | – | 1.54 µM | 5.85 µM | 3.89 µM | 0.801 µM
Nc1nc(OCc2ccccc2)nc2[nH]ncc12 | 25.5 µM | > 100 µM | – | – | 30.9 µM | > 100 µM | 19.3 µM | 37.8 µM | 32.5 µM | > 100 µM | 15 µM | 36.2 µM | 14.8 µM | 32.6 µM | 15.2 µM | 38.6 µM | 18.6 µM | 49.8 µM | > 100 µM | 24.3 µM
O=[N+]([O-])c1ccc(CS(=O)Cc2ccccc2)cc1 (centres undefined) | – | > 100 µM | – | – | – | > 100 µM | – | > 100 µM | – | > 100 µM | – | > 100 µM | – | > 100 µM | – | > 100 µM | – | > 100 µM | > 100 µM | –
O=C1c2ccccc2C(=O)C1C(c1ccc([N+](=O)[O-])cc1)C1C(=O)c2ccccc2C1=O | – | > 100 µM | – | > 100 µM | – | > 100 µM | – | > 100 µM | – | – | – | 32.5 µM | – | > 100 µM | – | > 100 µM | – | > 100 µM | > 100 µM | –
O=C(Nc1cc(Cl)c(Cl)cc1Cl)C(=O)C(C(=O)c1ccc(Cl)c(Cl)c1)C1OC(=O)c2ccccc21 (centres undefined) | – | 31.7 µM | – | 33.6 µM | – | 40.3 µM | – | 25.3 µM | – | – | – | 35 µM | – | 22.7 µM | – | 86.7 µM | – | > 100 µM | > 100 µM | –
N/N=C(\Cc1ccccc1)NN=C(N)N | – | > 100 µM | – | > 100 µM | – | > 100 µM | – | – | – | > 100 µM | – | > 100 µM | – | > 100 µM | – | > 100 µM | – | > 100 µM | > 100 µM | –
CCCCCCCCCCCCC(=O)[O-].CCCCCCCCCCCCC(=O)[O-].CCCCCCCCCCCCC(=O)[O-].CCCCCCCCCCCCC(=O)[O-].[Mo+2].[Mo+2] | 16 µM | 30.4 µM | 19.9 µM | 49.8 µM | 10.4 µM | 22.1 µM | – | – | 15.5 µM | 40.2 µM | 12.1 µM | 25.2 µM | 12.4 µM | 46.8 µM | 4.08 µM | 37 µM | 15.1 µM | 59.9 µM | 22.5 µM | 3.57 µM
CC(CCCOC(c1ccccc1)(c1ccccc1)c1ccccc1)OC(=O)Nc1cc([N+](=O)[O-])cc([N+](=O)[O-])c1 (centres undefined) | – | 93.5 µM | – | > 100 µM | – | > 100 µM | – | 83.4 µM | – | > 100 µM | – | > 100 µM | – | – | – | > 100 µM | – | 57.9 µM | > 100 µM | –
CCOC(=O)N1CCN(S(=O)(=O)c2oc(-c3ccc(Cl)cc3)nc2C#N)CC1 | 1.76 µM | 3.15 µM | 3.15 µM | 10.8 µM | 1.49 µM | 3.3 µM | 13.5 µM | > 100 µM | 1.75 µM | 3.47 µM | 0.573 µM | 2.02 µM | 64.3 µM | > 100 µM | – | – | 74.1 µM | > 100 µM | 4.35 µM | 0.739 µM
